Data: US11033538B2, “Dosing regimens for the treatment of lysosomal storage diseases using pharmacological chaperones” (Amicus Therapeutics, Inc., priority 2007, dated 2021)
Entries after “also recorded” stand apart in the source; their conditions may differ.

Experiments:
[1] = tested on: patients with Fabry disease; experiment: Example 15, echocardiography; format: in vivo, human; details: for decrease in interventricular septal wall thickness from baseline: up to 24 months
Description: Left ventricular mass index, left posterior wall thickness, diastolic, interventricular septum thickness, diastolic and other parameters were assessed through blinded, centralized evaluation. The baseline visit of extension study AT1001-041/NCT01458119 was used as the last assessment.

[2] = tested on: patients with Fabry disease; experiment: Example 15, safety analysis and adverse events; format: in vivo, human
Excerpt: Randomized patients receiving ≥1 dose were included in the safety analysis, which comprised vital signs, physical exams, electrocardiograms, clinical labs, and adverse events.

GL-3 [3] = experiment: Example 5, kidney GL-3 levels by electron microscopy; format: in vivo, human
Description: (§1) Eight patients in the study received an ascending dose of 25, 100, and then 250 mg b.i.d. over 6 weeks, followed by 50 mg/day for the remainder of the study.
Kidney GL-3 levels were assessed by an independent expert using electron microscopy.

GL-3 [4] = experiment: Example 11, immunohistochemical staining of GL-3 in hR301Q GLA Tg/KO mice; format: in vivo
Description: Immunohistochemical staining with a monoclonal anti-GL-3 antibody (nuclei counterstained with methyl green) was also performed. […] Data shown are representative pictures from 7-8 mice/group.

α-GAL = target: T1, α-GAL (Homo sapiens, UniProt P06280, R301Q); experiment: Example 8, α-GAL expression in tissues of transgenic mice expressing R301Q; format: in vivo; details: 100 mg/kg ad libitum, four weeks
T1 construct: from tissue; host or cells: skin, heart, kidney of transgenic mice
T1 sequence (P06280 32-429 R301Q): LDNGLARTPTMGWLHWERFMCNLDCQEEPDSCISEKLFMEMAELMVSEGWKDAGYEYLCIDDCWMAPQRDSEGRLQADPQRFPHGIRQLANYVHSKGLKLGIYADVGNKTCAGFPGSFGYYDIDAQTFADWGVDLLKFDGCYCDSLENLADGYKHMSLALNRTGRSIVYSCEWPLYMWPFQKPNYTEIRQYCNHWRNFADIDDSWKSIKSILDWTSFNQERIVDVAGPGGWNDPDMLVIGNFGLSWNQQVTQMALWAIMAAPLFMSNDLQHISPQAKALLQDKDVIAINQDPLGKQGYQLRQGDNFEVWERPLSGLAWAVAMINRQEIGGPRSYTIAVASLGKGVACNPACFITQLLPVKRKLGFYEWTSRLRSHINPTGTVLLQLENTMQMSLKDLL

GL-3 [5] = experiment: Example 12, GL-3 levels in tissues of hR301Q GLA Tg/KO mice; format: in vivo; details: 3-300 mg/kg/day, 4 weeks; p<0.05 vs. untreated
Description: Tissue lysates from skin, heart, and kidney were prepared and tested for GLA activity (using 4-MUG as substrate, expressed in nmol/mg protein/hr), GLA protein (using immunoblotting of […] tissue lysate with anti-human GLA antibody) and GL-3 levels (using LC-MS/MS, expressed in mg/g of tissue weight). […] Each bar represents the mean±SEM of n=7-8 mice/group. Each lane in the Western blots represents one mouse from each group.

healthy male volunteers = tested on: healthy male volunteers
Description: Safety was determined by evaluating vital signs, laboratory parameters (serum chemistry, hematology, and urinalysis), ECGs, physical examination and by recording adverse events during the Treatment Period.
Adverse events were coded using the MedDRA version 7.0 dictionary and summarized by treatment for the number of subjects reporting the adverse event and the number of adverse events reported. A by-subject adverse event data listing including verbatim term, coded term, treatment group, severity, and relationship to treatment was provided. Concomitant medications and medical history were listed by treatment.

GL-3 [6] = experiment: Example 5, skin GL-3 levels by light and electron microscopy; format: in vivo, human; details: 10 patients, baseline and after treatment
Description: as §1
Skin GL-3 levels at baseline and after treatment as assessed by light and electron microscopy are available for 10 patients.

GL-3 [7] = experiment: Example 6, urinalysis of GL-3; format: in vivo, human
Description: Four male patients received a single 150 mg Q.O.D for 12 weeks (Group B); while five male patients received 150 mg Q.O.D. for 24 weeks (Group C). Finally nine female patients were randomized to receive one of three dosages: 50, 150 or 250 mg Q.O.D for 12 weeks (Group D) (FIG. 8).
Urine was analysed at baseline and periodically every 2-6 weeks for GL-3.

[8] = open-label-extension, 6/57 patients

## OC[C@H]1NC[C@H](O)[C@@H](O)[C@H]1O [DGJ, (2R,3S,4R,5S)-2-(hydroxymethyl) piperdine-3,4,5-triol]
[1]; 30/36 months of treatment, ±21.5
  LVMi change from baseline (±SD): −7.8 g/m^2
[1]; 30/36 months, patients with baseline LVH (n=4)
  LVMi change from baseline: −30.0±17.5 g/m^2
[1]; in vivo
  left ventricular posterior wall thickness: stable for up to 24 months
[1]
  decrease in interventricular septal wall thickness from baseline: 5.2%
[1]; ±0.051, baseline 1.17 cm±0.057
  decrease in interventricular septal wall thickness from baseline: 0.061 cm
[2]; Stage 1, DGJ arm
  patients with serious adverse events: 2 patients
[2]; Stage 1, DGJ, 6/34 patients
  nasopharyngitis frequency: 18%
[2]; Stage 1, DGJ, 12/34 patients
  headache frequency: 35%
[2]; Stage 2, 7/63 patients, related to kidney biopsies
  procedural pain frequency: 11%
[2]; Stage 2, 9/63 patients
  headache frequency: 14%
[2]; fatigue and paresthesia, same patient, months 12-24, resolved
  serious adverse events possibly related to DGJ: Two serious adverse events were assessed as possibly related to DGJ
[2]; in vivo
  deaths: No deaths were reported
  discontinuation due to adverse events: No adverse events led to DGJ discontinuation
  severity of adverse events: Most adverse events were mild or moderate in severity
  vital sign, physical findings, laboratory and ECG parameters: did not reveal any clinically relevant effect of DGJ
[2]; [8]
  bronchitis frequency: 11%
  headache frequency: 11%
[2]; open-label-extension, 9/57 patients
  proteinuria frequency: 16%
[2]; patients with baseline proteinuria <300 mg/24-h
  patients whose 24-hour urine protein remained stable during DGJ treatment: 23/28
GL-3 [3]; both patients
  decrease of GL-3 levels in other kidney cell types including interstitial capillaries: less than 1 unit
GL-3 [3]; one patient, 12 weeks of treatment
  kidney GL-3 (mesangial cells, glomerular endothelium, distal tubules): observed decrease in GL-3 in multiple cell types of the kidney of one patient
GL-3 [3]; second patient, 24 weeks, not independently conclusive
  kidney GL-3 (same cell types): decrease of GL-3 levels in the same kidney cell types
GL-3 [4]; 300 mg/kg, 4 weeks
  GL-3 signal, less frequent vs daily dosing: greater GL-3 reduction was seen in each tissue
GL-3 [4]; both daily and less frequent treatment, skin, heart, kidney
  GL-3 signal by immunohistochemistry: reduced the amount and intensity of GL-3 signal in each tissue
α-GAL
  α-GAL expression in the skin, heart and kidney: increased
GL-3 [5]
  GL-3 levels in skin, heart, kidney: significant reduction in GL-3 levels
Healthy male volunteers; 50 mg b.i.d. and 150 mg b.i.d., 7 days
  safety and tolerability: safe and well tolerated
Healthy male volunteers; 50 mg b.i.d. or 150 mg b.i.d.
  adverse events (AEs): no subject presented with AEs
Healthy male volunteers; 50 and 150 mg twice daily for 7 days
  tolerability: generally well-tolerated at all doses
Healthy male volunteers; 50 or 150 mg b.i.d.
  vital sign, ECG, physical examination: No clinically relevant abnormality occurred in any vital sign, ECG, or physical examination parameter
Healthy male volunteers; any treatment group
  serious adverse events: no serious adverse events
GL-3 [6]
  skin GL-3 levels: Seven patients had skin GL-3 levels that were normal or near normal both before and after treatment; also recorded: Results for the three other patients were difficult to interpret
GL-3 [7]; female
  expected good responders with urine GL-3 decrease greater than 10%: 3 of the 5
GL-3 [7]; female expected good responders
  mean decrease in urine GL-3 levels: 20%
GL-3 [7]; male good responders
  good responders with urine GL-3 decrease greater than 10%: eight of the eleven
  mean decrease in urine GL-3 levels: 38%
GL-3 [7]; male moderate and non responders
  urine GL-3 following treatment: overall increases in urine GL-3
